According to article PMC2900529 (FEBS letters, 2010):

Tests used:
[1] = target: T1, E. coli LysRS (Escherichia coli, UniProt P0A8N3); test: amino acid activation; assay type: biochemical; conditions: analog 25 mM; ATP
T1 sequence (P0A8N3 2-505): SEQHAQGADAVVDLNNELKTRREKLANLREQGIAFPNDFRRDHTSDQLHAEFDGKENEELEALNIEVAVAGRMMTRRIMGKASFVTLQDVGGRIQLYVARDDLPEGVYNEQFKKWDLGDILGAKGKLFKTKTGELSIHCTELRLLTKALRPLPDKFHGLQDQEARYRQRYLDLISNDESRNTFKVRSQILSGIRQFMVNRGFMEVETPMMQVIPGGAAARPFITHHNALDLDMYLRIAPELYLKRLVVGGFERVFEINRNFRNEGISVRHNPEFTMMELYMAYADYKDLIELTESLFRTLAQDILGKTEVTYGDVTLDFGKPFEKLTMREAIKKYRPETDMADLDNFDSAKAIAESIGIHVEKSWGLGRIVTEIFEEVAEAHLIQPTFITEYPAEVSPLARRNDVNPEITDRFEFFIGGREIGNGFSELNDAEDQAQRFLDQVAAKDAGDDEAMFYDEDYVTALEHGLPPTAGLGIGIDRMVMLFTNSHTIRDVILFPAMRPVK

[2] = target: T2, GenX (PoxA, YjeA) (Escherichia coli, UniProt P0A8N7); test: inhibition of lysine activation, ATP-[…]PPi exchange; assay type: biochemical
T2 sequence (P0A8N7 1-325): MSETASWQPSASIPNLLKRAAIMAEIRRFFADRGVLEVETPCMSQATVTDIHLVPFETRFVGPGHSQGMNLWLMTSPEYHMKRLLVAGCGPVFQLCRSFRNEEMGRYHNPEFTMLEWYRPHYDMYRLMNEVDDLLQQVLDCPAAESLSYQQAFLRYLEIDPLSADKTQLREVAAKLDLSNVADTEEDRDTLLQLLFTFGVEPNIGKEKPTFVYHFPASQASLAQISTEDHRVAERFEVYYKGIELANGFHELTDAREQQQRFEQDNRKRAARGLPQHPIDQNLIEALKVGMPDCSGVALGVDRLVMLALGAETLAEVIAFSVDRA

Row | Compound | amino acid activation [1] | Ki [2] [µM]
1 | NCCSC[C@H](N)C(=O)O [compound 1, S-(2-aminoethyl)-L-cysteine] | E. coli LysRS readily activates S-(2-aminoethyl)-L-cysteine (AEC), ornithine | –
2 | NCCCC[C@H](N)C(=O)NO [compound 2, L-lysine hydroxamate] | – | 150
3 | NCCCC[C@H](N)C(N)=O [compound 3, lysinamide] | – | 280
